Reference: patent US20100160370A1, “METHOD OF TREATMENT AND PHARMACEUTICAL COMPOSITIONS” (Gilead Sciences, Inc., priority 2008, published 2010)

Key:
Assay type in all cases: in vivo
collagen = assay: Bleomycin rat model: lung collagen deposition (pepsin digest, SDS-PAGE densitometry); set-up: Collagen Response (Average collagen concentration): unit not given here; conditions: for Collagen Response (Average collagen concentration): oral gavage twice a day, 28 day, lung tissue
From the text: The bleomycin rat model was used in this study to evaluate (R)-N-((2S,3S)-2-(fluoromethyl)-2-hydroxy-5-oxo-tetrahydrofuran-3-yl)-5-isopropyl-3-(isoquinolin-1-yl)-4,5-dihydroisoxazole-5-carboxamide as a possible therapeutic drug for the treatment of idiopathic pulmonary fibrosis (IPF) and other fibrotic lung diseases. The bleomycin animal model of IPF is an art-recognized model for evaluating potentially therapeutic drugs for the treatment of IPF (see, e.g., F. Chua et al., Pulmonary Fibrosis, Searching for Model Answers, Am. J. Respir. Cell. Mol. Biol., 33:9-13 (2005); A. Moeller et al., The bleomycin animal model: A useful tool to investigate treatment options for idiopathic pulmonary fibrosis, International Journal of Biochemistry and Cell Biology, 40: 362-382 (2008)). The rats receiving the test compound were gavaged twice a day from day zero (the day of bleomycin administration) through the day prior to necropsy. On days 14 and 28 the designated rats were euthanized with a pentobarbital-based solution, the chest cavity was opened and examined for gross pathology. The right lung was removed, canulated, and lavaged for determination of white blood cell counts. The lavaged tissue was flash frozen and analyzed for collagen content by measuring the amount of collagen. The left lung was fixed for histopathology. Homogenates from the lungs were analyzed for cytokines. […] Gels were then stained with Coomassie Blue and stained bands migrating coincident with type I collagen standards were compared by densitometry to the Coomassie stained collagen standards in order to quantitate collagen content. Under the reducing conditions employed in the analysis, the quantitated lung sample gel bands represented the alpha 1 and 2 chains of type I collagen and the alpha 1 chain of type Ill collagen. Blots were scanned with a BioRad GS-800 Scanner and their density was quantitated using “Quantity One” computer software from BioRad. Results were averaged for each treatment group and expressed as micrograms of collagen/mg of lung tissue.

MCP-3 = assay: Bleomycin rat model: MCP-3 level in bronchoalveolar lavage fluid (Luminex/Procarta cytokine assay); conditions: for MCP-3 concentration (Average): oral gavage twice a day, BAL
From the text: (§1) The bleomycin rat model was used in this study to evaluate (R)-N-((2S,3S)-2-(fluoromethyl)-2-hydroxy-5-oxo-tetrahydrofuran-3-yl)-5-isopropyl-3-(isoquinolin-1-yl)-4,5-dihydroisoxazole-5-carboxamide as a possible therapeutic drug for the treatment of idiopathic pulmonary fibrosis (IPF) and other fibrotic lung diseases. The bleomycin animal model of IPF is an art-recognized model for evaluating potentially therapeutic drugs for the treatment of IPF (see, e.g., F. Chua et al., Pulmonary Fibrosis, Searching for Model Answers, Am. J. Respir. Cell. Mol. Biol., 33:9-13 (2005); A. Moeller et al., The bleomycin animal model: A useful tool to investigate treatment options for idiopathic pulmonary fibrosis, International Journal of Biochemistry and Cell Biology, 40: 362-382 (2008)).
(§2) The rats receiving the test compound were gavaged twice a day from day zero (the day of bleomycin administration) through the day prior to necropsy. On days 14 and 28 the designated rats were euthanized with a pentobarbital-based solution, the chest cavity was opened and examined for gross pathology. The right lung was removed, canulated, and lavaged for determination of white blood cell counts. The lavaged tissue was flash frozen and analyzed for collagen content by measuring the amount of collagen. The left lung was fixed for histopathology. Homogenates from the lungs were analyzed for cytokines.
(§3) Intratracheal administration of bleomycin induces a two-stage response in the lungs of rats. The first stage is an inflammatory response which peaks at about 14 days after bleomycin administration, and the second stage is a fibrotic response that is apparent by 28 days after bleomycin administration. The inflammation markers that were measured in this study were the influx of leukocytes (neutrophils, macrophages and lymphocytes) into the airways, and the induction of the cytokines MCP-1 and MCP-3 (where MCP stands for Monocyte Chemoattractant Protein). Tables 2, 3, 4 and 5 show the total cell count, neutrophil count, macrophage count and the lymphocyte count, respectively, from the treated rats at 14 days and 28 days (Values for cell numbers are ×10^6). The abbreviation SEM stands for Standard Error of the Mean. In Tables 2 thru 8 the t-test was an unpaired, two-tailed, t-test performed using a GraphPad Prism version 5.01 for Windows (GraphPad Software, San Diego, Calif. USA).
(§4) Additionally, MCP-1 and MCP-3 levels in the rat Bronchoalveolar Lavage Fluid (BAL) were measured using Luminex xMap Technology CS1000 (Austin, Tex.) and a Procarta Cytokine Assay Kit (rat 15-plex) manufactured by Panomics, Inc. (Fremont, Calif.) that included analytes for: IL-1α, IL-1β, IL-6, TNFα, KC, MCP-1, MCP-3, MIP-1α, RANTES, VEGF, TGFb, IL-4, IL-10, IFNg, and GM-CSF. Three replicate assay wells (n=3) were analyzed for each experimental sample following the manufacturer's instructions. Quantitation of each analyte was determined against standard curves using MiraiBio's (Alameda, Calif.) Masterplex QT v 3.0 software. For all samples, background signals in the absence of BAL were determined and subtracted from signals obtained in the presence of BAL to obtain the net signal. Statistical significance of biological studies was tested with a two-tailed Student t-test. Tables 6 and 7 show the concentrations of cytokines MCP-1 and MCP-3, respectively, in the airways of the treated rats, expressed in pg/mL.

bleomycin rat model = assay: Bleomycin rat model: white blood cell counts in lung lavage; conditions: for Lymphocyte Count (Average) / Macrophage Count (Average) / Neutrophil Count (Average) / Total Cell Count (Average): oral gavage twice a day, lung lavage
From the text: The bleomycin rat model was used in this study to evaluate (R)-N-((2S,3S)-2-(fluoromethyl)-2-hydroxy-5-oxo-tetrahydrofuran-3-yl)-5-isopropyl-3-(isoquinolin-1-yl)-4,5-dihydroisoxazole-5-carboxamide as a possible therapeutic drug for the treatment of idiopathic pulmonary fibrosis (IPF) and other fibrotic lung diseases. The bleomycin animal model of IPF is an art-recognized model for evaluating potentially therapeutic drugs for the treatment of IPF (see, e.g., F. Chua et al., Pulmonary Fibrosis, Searching for Model Answers, Am. J. Respir. Cell. Mol. Biol., 33:9-13 (2005); A. Moeller et al., The bleomycin animal model: A useful tool to investigate treatment options for idiopathic pulmonary fibrosis, International Journal of Biochemistry and Cell Biology, 40: 362-382 (2008)). In this Example, (R)-N-((2S,3S)-2-(fluoromethyl)-2-hydroxy-5-oxo-tetrahydrofuran-3-yl)-5-isopropyl-3-(isoquinolin-1-yl)-4,5-dihydroisoxazole-5-carboxamide is referred to as the “test compound” for ease of reference. […] The abbreviations used in Table 1 are Bleo (bleomycin), IT (intratracheal), mg/kg (milligram per kilogram), N (number) and n/a (not applicable). [table] The rats receiving the test compound were gavaged twice a day from day zero (the day of bleomycin administration) through the day prior to necropsy. On days 14 and 28 the designated rats were euthanized with a pentobarbital-based solution, the chest cavity was opened and examined for gross pathology. The right lung was removed, canulated, and lavaged for determination of white blood cell counts. The lavaged tissue was flash frozen and analyzed for collagen content by measuring the amount of collagen. The left lung was fixed for histopathology. Homogenates from the lungs were analyzed for cytokines. Intratracheal administration of bleomycin induces a two-stage response in the lungs of rats. The first stage is an inflammatory response which peaks at about 14 days after bleomycin administration, and the second stage is a fibrotic response that is apparent by 28 days after bleomycin administration. The inflammation markers that were measured in this study were the influx of leukocytes (neutrophils, macrophages and lymphocytes) into the airways, and the induction of the cytokines MCP-1 and MCP-3 (where MCP stands for Monocyte Chemoattractant Protein). Tables 2, 3, 4 and 5 show the total cell count, neutrophil count, macrophage count and the lymphocyte count, respectively, from the treated rats at 14 days and 28 days (Values for cell numbers are ×10^6). The abbreviation SEM stands for Standard Error of the Mean. In Tables 2 thru 8 the t-test was an unpaired, two-tailed, t-test performed using a GraphPad Prism version 5.01 for Windows (GraphPad Software, San Diego, Calif. USA).

MCP-1 = assay: Bleomycin rat model: MCP-1 level in bronchoalveolar lavage fluid (Luminex/Procarta cytokine assay); conditions: for MCP-1 concentration (Average): oral gavage twice a day, BAL
From the text: as §1, §2, §3, §4

[1] = orally administered, bleomycin-treated rats, result in words
[2] = Bleomycin IT 3.5 mg/kg + 10 mg/Kg test compound, 14 day
[3] = Bleomycin IT 3.5 mg/kg + 10 mg/Kg test compound, 28 day
[4] = Bleomycin IT 3.5 mg/kg + 30 mg/Kg test compound, 14 day
[5] = Bleomycin IT 3.5 mg/kg + 30 mg/Kg test compound, 28 day
[6] = bleomycin-treated rats, result in words

CC(C)[C@@]1(C(=O)N[C@H]2CC(=O)O[C@]2(O)CF)CC(c2nccc3ccccc23)=NO1 [Test Compound, (R)-N-((2S,3S)-2-(fluoromethyl)-2-hydroxy-5-oxo-tetrahydrofuran-3-yl)-5-isopropyl-3-(isoquinolin-1-yl)-4,5-dihydroisoxazole-5-carboxamide]
Collagen Response (Average collagen concentration) (collagen; Bleomycin IT 3.5 mg/kg + 10 mg/Kg test compound): 2.353 | Collagen Response (Average collagen concentration) (collagen; Bleomycin IT 3.5 mg/kg + 30 mg/Kg test compound): 3.891 | deposition of collagen during the fibrotic phase of the bleomycin response (collagen; [1]): inhibited the deposition of collagen | MCP-3 concentration (Average) (MCP-3; [2]): 37.987 pg/mL | MCP-3 concentration (Average) (MCP-3; [3]): 7.075 pg/mL | MCP-3 concentration (Average) (MCP-3; [4]): 5.668 pg/mL | MCP-3 concentration (Average) (MCP-3; [5]): 6.497 pg/mL | production of MCP-3 in the lungs (MCP-3; [6]): inhibited the production | Lymphocyte Count (Average) (bleomycin rat model; [2]): 0.002 ×10^6 | Macrophage Count (Average) (bleomycin rat model; [2]): 0.415 ×10^6 | Neutrophil Count (Average) (bleomycin rat model; [2]): 0.006 ×10^6 | Total Cell Count (Average) (bleomycin rat model; [2]): 1.988 ×10^6 | Lymphocyte Count (Average) (bleomycin rat model; [3]): 0.007 ×10^6 | Macrophage Count (Average) (bleomycin rat model; [3]): 0.442 ×10^6 | Neutrophil Count (Average) (bleomycin rat model; [3]): 0.012 ×10^6 | Total Cell Count (Average) (bleomycin rat model; [3]): 2.276 ×10^6 | Lymphocyte Count (Average) (bleomycin rat model; [4]): 0.003 ×10^6 | Macrophage Count (Average) (bleomycin rat model; [4]): 0.285 ×10^6 | Neutrophil Count (Average) (bleomycin rat model; [4]): 0.005 ×10^6 | Total Cell Count (Average) (bleomycin rat model; [4]): 1.482 ×10^6 | Lymphocyte Count (Average) (bleomycin rat model; [5]): 0.004 ×10^6 | Macrophage Count (Average) (bleomycin rat model; [5]): 0.476 ×10^6 | Neutrophil Count (Average) (bleomycin rat model; [5]): 0.008 ×10^6 | Total Cell Count (Average) (bleomycin rat model; [5]): 2.207 ×10^6 | influx of lymphocytes into the airways (bleomycin rat model; [1]): inhibited the influx | influx of macrophages into the airways (bleomycin rat model; [1]): inhibited the influx | influx of neutrophils into the airways (bleomycin rat model; [1]): inhibited the influx | MCP-1 concentration (Average) (MCP-1; [2]): 66.122 pg/mL | MCP-1 concentration (Average) (MCP-1; [3]): 12.800 pg/mL | MCP-1 concentration (Average) (MCP-1; [4]): 13.838 pg/mL | MCP-1 concentration (Average) (MCP-1; [5]): 11.844 pg/mL | production of MCP-1 in the lungs (MCP-1; [6]): inhibited the production
